Several values for one entry are separate records, joined by “and”; a condition that tells them apart may be missing. Identical values can stand only once.
Columns and labels:
[1] = system: staphylococcal mastitis infections; experiment: Bovine mastitis: intramammary infusion in lactating cows, clinical and bacteriological response at 4 and 7 days after treatment; format: in vivo, staphylococci
Description: Twenty one staphylococcal mastitis infections were treated as follows:
Ten infections treated with 3 x 12 hr infusions of a combination of 300 mg Rifampicin and 200 mg Cloxacillin.
Eleven infections treated with 3 x 12 hr infusions of 200 mg Cloxacillin.
The treatment was carried out by intramammary infusion in lactating cows, and the clinical and bacteriological response recorded at 4 and 7 days after treatment.

S. aureus = experiment: Experimental mouse mastitis: intramammary antibiotic therapy 4 h after S. aureus inoculation, viable bacterial count per gland 18 h later; format: in vivo; conditions: for 22 h bacterial counts (log10 cfu/gland) (18 h after treatment), x̄: group mean of five mice; for 22 h bacterial counts (log10 cfu/gland) (18 h after treatment): individual mice, intramammary, 4 h after infection
Description: Lactating mice of the Compton white strain were used 4-7 days after parturition. The mice were anaesthetised with ether and c.10^6 cfu S. aureus were inoculated via the teat into the fourth mammary gland on each side (R4 and L4) by the method described by Anderson [Zentralblatt fur Bakteriologie, Parasitenkunde, Infektionskrankheiten und Hygiene (Abteilung 1) Suppl. 5 783-790].
4 Hours later, the mice were divided into four groups and each group received inoculations into R4 and L4 of either cloxacillin, rifampicin, cloxacillin and rifampicin, or saline. After a further 18 hours, the mice were killed. From each mouse, L4 was removed and homogenised in a Griffith's tube with 5 ml sterile saline, and a total viable bacterial count was determined using ox blood agar plates pretreated with S-lactamase.
The log10 bacterial viable counts per gland found after antibiotic (or saline) therapy in each experiment were examined by analysis of variance. Differences between each pair of treatments were then compared for significance in Student's 't' tests, using the value of the.mean square for error obtained in the analysis of variance. Antibiotic residues. Each gland homogenate was also assayed for antibiotic content using an agar well diffusion method with penassay seed agar (Antibiotic medium 1, Difco Labs., Detroit) and Sarcina lutea as the test organism.
Similar treatment to that described above was carried out on mice, in which cloxacillin was replaced by flucloxacillin.
Antibiotics inoculated into mammary glands 4 h after infection at a dose of 1 mg cloxacillin or […] rifampici per gland, or both.

bovine mastitis = conditions: recent reports (Poutrel 1978; Postle et al. 1979); cited from earlier work
[2] = lactating cows, 3 x 12 hr infusions of 300 mg Rifampicin and 200 mg Cloxacillin, or of 200 mg Cloxacillin

Cc1onc(-c2ccccc2Cl)c1C(=O)N[C@@H]1C(=O)N2[C@@H]1SC(C)(C)[C@@H]2C(=O)O [Cloxacillin, cloxacillin]
quarters with raised cell counts ([1]; four days after treatment, eight out of eleven raised before): five | quarters yielding staphylococci ([1]; four days after treatment, eleven infections treated): five | Proportion of quarters cured four days after treatment [1, 2]: 6 out of 11 | Proportion of quarters cured seven days after treatment [1, 2]: 5 out of 11 | quarters yielding staphylococci ([1]; seven days after treatment, combination ten quarters, cloxacillin alone eleven): six | mean viable bacterial counts per gland, comparison between groups (S. aureus; M60 S. aureus, cloxacillin/rifampicin experiment, 1 mg cloxacillin or rifampici per gland, or both, 18 h after therapy, P<0.01): reduced bacterial counts to a significantly greater extend than rifampicin treatment

Cc1onc(-c2c(F)cccc2Cl)c1C(=O)N[C@@H]1C(=O)N2[C@@H]1SC(C)(C)[C@@H]2C(=O)O [Fluclox, flucloxacillin]
22 h bacterial counts (log10 cfu/gland) (18 h after treatment), x̄ (S. aureus; Fluclox 1 mg per gland): 4.403 log10 cfu/gland | 22 h bacterial counts (log10 cfu/gland) (18 h after treatment) (S. aureus; Fluclox 1 mg per gland): 4.243 log10 cfu/gland and 4.796 log10 cfu/gland and 4.158 log10 cfu/gland and 4.340 log10 cfu/gland and 4.477 log10 cfu/gland

CO[C@H]1/C=C/O[C@@]2(C)Oc3c(C)c(O)c4c(O)c(c(/C=N/N5CCN(C)CC5)c(O)c4c3C2=O)NC(=O)/C(C)=C\C=C\[C@H](C)[C@H](O)[C@@H](C)[C@@H](O)[C@@H](C)[C@H](OC(C)=O)[C@@H]1C [Rifampicin, rifampicin]
22 h bacterial counts (log10 cfu/gland) (18 h after treatment), x̄ (S. aureus; Rifampicin 25 µg per gland): 4.837 log10 cfu/gland | 22 h bacterial counts (log10 cfu/gland) (18 h after treatment) (S. aureus; Rifampicin 25 µg per gland): 5.694 log10 cfu/gland and 4.581 log10 cfu/gland and 5.536 log10 cfu/gland and 4.258 log10 cfu/gland and 4.118 log10 cfu/gland

CO[C@H]1/C=C/O[C@@]2(C)Oc3c(C)c([O-])c4c(O)c(cc(O)c4c3C2=O)NC(=O)/C(C)=C\C=C\[C@H](C)[C@H](O)[C@@H](C)[C@@H](O)[C@@H](C)[C@H](OC(C)=O)[C@@H]1C.[Na+] [rifamycin-S.V.]
effectiveness of therapy in bovine mastitis (bovine mastitis): less effective than penicillin based preparations

Source: patent publication EP0058015A2, “Treatment of infections” (BEECHAM GROUP PLC, priority 1981, dated 1982)
